Values quoted from earlier work in publication PMC10905719, “Accelerating Antimicrobial Peptide Discovery for WHO Priority Pathogens through Predictive and Interpretable Machine Learning Models” (ACS Omega, 2024).

Legend:
Erythrocyte = test system: Erythrocyte
From the text: page 8: 2 VGALAGFLYWHFLRKGTKM NewAMP_S Hm-AMP10 VGK S. aureus ST 88 248.00 NewAMP_S hHK-18 TGKASQFFGLM-NH S. aureus ATCC 151.63 2 25923 NewAMP_S AH-18 LKKWTGKASQFFGLM-NH S. aureus ATCC 222.71 2 25923 NewAMP_S AH-28 LKKWTLKASQFFGLM-NH S. aureus ATCC 229.89 2 25923 NewAMP_S AH-38 LKKWLKKWTGKASQFFGLM- S. aureus ATCC 9.18 NH2 25923 NewAMP_S AH-48 LKKWLKKWTLKASQFFGLM- S. aureus ATCC 4.70 NH2 25923 Sub-set Name Sequence Erythrocyte MHC(µg/mL) (% hemolysis) NewAMP_HE HJH-18 KLLKHKLLVTLA Erythrocyte 382.72a NewAMP_HE HJH-28 KLLKHKLLVTLR Erythrocyte 382.72a NewAMP_HE HJH-38 KLLKRKLLVTLR Erythrocyte 382 ...

S. aureus ATCC 6538P = settings: NewAMP_S, ref SI 3
From the text: page 7: 29213 8 S. aureus ATCC NewAMP_S HJH-6 KKLLKKLLRLLKVLLR 29213 0.75 6 GWGAKRWGKRGWKWKRH NewAMP_S GW18 W-COONH S. aureus ATCC 6538 3.12 2 3 […] S. aureus ATCC NewAMP_S RaCa-2 KC 6538P 2-4 3 S. aureus ATCC NewAMP_S RaCa-4 FLTFPGMTFGKLLGK 6538P No inhibition 3 […] S. aureus ATCC NewAMP_S RaCa-6 GKQ 6538P No inhibition 3 […] S. aureus ATCC NewAMP_S RaCa-7 SVGN 6538P No inhibition 3 S. aureus ATCC NewAMP_S RaCa-8 FPAIICKVSKNC 6538P No inhibition 3 S. aureus ATCC NewAMP_S RaCa-9 FYFPVSRKFGGK 6538P No inhibition 3 […] S ...

P. aeruginosa ATCC 10148 = settings: NewAMP_P, ref SI 3
From the text: page 6: NH2 8 LKKWLKKWTPKASQFFGLM- NewAMP_E AH-5 NH E. coli ATCC 25922 4.67 2 3 […] P. aeruginosa ATCC NewAMP_P RaCa-2 KC 10148 128 3 P. aeruginosa ATCC NewAMP_P RaCa-4 FLTFPGMTFGKLLGK 10148 No inhibition 3 […] P. aeruginosa ATCC NewAMP_P RaCa-6 GKQ 10148 No inhibition 3 […] P. aeruginosa ATCC NewAMP_P RaCa-7 SVGN 10148 No inhibition 3 P. aeruginosa ATCC NewAMP_P RaCa-8 FPAIICKVSKNC 10148 No inhibition 3 P. aeruginosa ATCC NewAMP_P RaCa-9 FYFPVSRKFGGK 10148 No inhibition 3 […] P. aeruginosa ATCC NewAMP_P RaCa-10 LEII 1 ...

E. coli ATCC 25922 = settings: NewAMP_E, ref SI 3
From the text: page 5: Table S3 NewAMP database1-9 Sub-set Name Sequence Bacterial Strain MIC (µg/mL) NewAMP_E HJH-58 KKLLRLLKVLLR E. coli ATCC 25922 1.5 3 […] NewAMP_E RaCa-2 KC E. coli ATCC 25922 4-16 3 […] NewAMP_E RaCa-6 GKQ E. coli ATCC 25922 No inhibition NewAMP_E RaCa-83 FPAIICKVSKNC E. coli ATCC 25922 No inhibition 3 […] NewAMP_E RaCa-10 LEII E. coli ATCC 25922 No inhibition 5 […] NewAMP_E Hydr_2 KLL-NH E. coli ATCC 25922 512 2 5 […] NewAMP_E Hydr_3 KAG-NH E. coli ATCC 25922 512 2 NewAMP_E Hydr_45 FLPLIGRVFSGIL ... || page 6: NH2 8 LKKWLKKWTPKASQFFGLM- NewAMP_E AH-5 NH E. coli ATCC 25922 4.67 2 3 […] P. aeruginosa ATCC NewAMP_P RaCa-2 KC 10148 128 3 P. aeruginosa ATCC NewAMP_P RaCa-4 FLTFPGMTFGKLLGK 10148 No inhibition 3 […] P. aeruginosa ATCC NewAMP_P RaCa-6 GKQ 10148 No inhibition 3 […] P. aeruginosa ATCC NewAMP_P RaCa-7 SVGN 10148 No inhibition 3 P. aeruginosa ATCC NewAMP_P RaCa-8 FPAIICKVSKNC 10148 No inhibition 3 P. aeruginosa ATCC NewAMP_P RaCa-9 FYFPVSRKFGGK 10148 No inhibition 3 […] P. aeruginosa ATCC NewAMP_P RaCa-10 LEII 1 ...

FILYGLIRFGRLLRK [Hm-AMP4, newly published AMP of the NewAMP test set]
% hemolysis at MHC (Erythrocyte): 77%

FLTFPGMTFGKLLGK [RaCa-4, newly published AMP of the NewAMP test set]
MIC (S. aureus ATCC 6538P): No inhibition
MIC (P. aeruginosa ATCC 10148): No inhibition

FPAIICKVSKNC [RaCa-8, newly published AMP of the NewAMP test set]
MIC (E. coli ATCC 25922): No inhibition
MIC (S. aureus ATCC 6538P): No inhibition
MIC (P. aeruginosa ATCC 10148): No inhibition

FYFPVSRKFGGK [RaCa-9, newly published AMP of the NewAMP test set]
MIC (S. aureus ATCC 6538P): No inhibition
MIC (P. aeruginosa ATCC 10148): No inhibition

KKLLKKLLRLLKVLLR [HJH-6, newly published AMP of the NewAMP test set]
% hemolysis at MHC (Erythrocyte): 90%

SNRDFFKVNIFRLCG [RaCa-11, newly published AMP of the NewAMP test set]
MIC (S. aureus ATCC 6538P): No inhibition
MIC (P. aeruginosa ATCC 10148): No inhibition
